The values that follow come from patent publication US11529328B2, “Formulations for pharmaceutical agents” (The Curators of the University of Missouri, priority 2019, dated 2022).

In brackets after ≈: the same amount, converted by molar mass.

The subject of one data set is DU-145. To be noted: exposure time period of 72; previous study; read-out: reported IC50 of DXT; cited from earlier work.
The conditions of data set [1]: deionized-water; cited from earlier work.
For data set [2] the following is noted: cited from earlier work.
A further data set concerns MCF-10A. Kind of data set: MTS cell viability / cytotoxicity on normal MCF-10A cells. In kind it is cell-based, human. Conditions: 1% v/v.

The IC50 is the concentration at which inhibition is half-maximal. A word on the solubility: it is the dissolved amount per volume that the medium holds. Broadly, the log P is the decadic logarithm of the partition coefficient of the neutral form, usually between octanol and water.

For `CC(=O)O[C@@]12CO[C@@H]1C[C@H](O)[C@@]1(C)C(=O)[C@H](O)C3=C(C)[C@@H](OC(=O)[C@H](O)[C@@H](NC(=O)OC(C)(C)C)c4ccccc4)C[C@@](O)([C@@H](OC(=O)c4ccccc4)[C@H]21)C3(C)C` [native DXT, Docetaxel], in the data set on DU-145, the 50% inhibitory concentration (IC50) is 8.2 nM. Besides, the solubility in data set [1] is 11.75 µg/mL (≈ 14.5 µM). Further, the “log P” value in data set [2] is listed as 4.1.
Turning to Triton X, the “cytotoxicity of positive control” value in the data set with MCF-10A is on record as “strongly cytotoxic”.
